Columns and labels:
Type in all cases: in vivo, rat
[1] = tested on: IGFBP-4; test: Chronic denervation: IGFBP-4 mRNA in gastrocnemius (qPCR)
Description: (§1) Male Wistar rats weighing 200-250 gm (Taconic Farms, Germantown, N.Y.) were provided food and water ad libitum and were housed in a temperature and humidity controlled environment providing a 12:12 hour day-night cycle. For surgical procedures, animals were anesthetized with ketamine/xylazine. The left sciatic nerve was exposed by blunt dissection, and a 1 to 2 mm piece of this nerve was excised just below the level of the femoral head. A sham surgery was performed on the right hind limb in which the sciatic nerve was exposed but was not transected. Twenty eight days later, animals were anesthetized, and Alzet pumps were implanted subcutaneously on the back. […] Testosterone levels after replacement were approximately 15 nM, a high-normal range for rats of this age. […]
(§2) Total RNA was extracted from skeletal muscle (20 mg) by homogenization in guanidine thiocyanate using a Polytron followed by extraction of total RNA with phenol-chloroform as described by (Chomczynski and Sacchi, Anal Biochem 162: 156-159, 1987). […] Total RNA was eluted and quantified by absorbance at 260 nm. […] Levels of gene expression in the denervated muscle were expressed as fold induction relative to muscle from the sham-denervated leg of animals administered vehicle. […] Fold-induction was determined using the 2^−ΔΔCt method, using expression of 18S RNA as the normalization control. […]

[2] = tested on: myostatin; test: Chronic denervation: myostatin mRNA in gastrocnemius (qPCR)
Description: as §1, §2

[3] = tested on: IGF-1 receptor; test: Chronic denervation: IGF receptor mRNA in gastrocnemius (qPCR); conditions: for IGF-receptor expression: denervated muscle
Description: (§3) Male Wistar rats weighing 200-250 gm (Taconic Farms, Germantown, N.Y.) were provided food and water ad libitum and were housed in a temperature and humidity controlled environment providing a 12:12 hour day-night cycle. For surgical procedures, animals were anesthetized with ketamine/xylazine. The left sciatic nerve was exposed by blunt dissection, and a 1 to 2 mm piece of this nerve was excised just below the level of the femoral head. A sham surgery was performed on the right hind limb in which the sciatic nerve was exposed but was not transected. Twenty eight days later, animals were anesthetized, and Alzet pumps were implanted subcutaneously on the back. […] Testosterone levels after replacement were approximately 15 nM, a high-normal range for rats of this age. Animals were sacrificed 3, 7 or 28 days after implantation of the miniosmotic pumps by inhalation of carbon dioxide. Gastrocnemius muscles were excised and weighed, then flash frozen on dry ice and stored at −80° C.
(§4) Total RNA was extracted from skeletal muscle (20 mg) by homogenization in guanidine thiocyanate using a Polytron followed by extraction of total RNA with phenol-chloroform as described by (Chomczynski and Sacchi, Anal Biochem 162: 156-159, 1987). Total RNA was further enriched using RNAeasy minicolumns (Qiagen, Valencia, Calif.). This procedure included digestion of contaminating DNA on the column with RNAse-free DNAse (Qiagen). Total RNA was eluted and quantified by absorbance at 260 nm. One μg of total RNA was used to prepare a cDNA library by reverse transcription (High Capacity cDNA Archive Kit, Applied Biosystems). Libraries were diluted 25-fold with water. Real time PCR was performed Taqman 2×PCR buffer (Applied Biosystems) using an Applied Biosystems 7500 thermocycler. Levels of gene expression in the denervated muscle were expressed as fold induction relative to muscle from the sham-denervated leg of animals administered vehicle. […] Fold-induction was determined using the 2^−ΔΔCt method, using expression of 18S RNA as the normalization control. […]

[4] = tested on: IGF-1 receptor (IGF-1R); test: Acute denervation: IGF-1 receptor mRNA in EDL and soleus (qPCR)
Description: as §1, with “250” for “200-250”, “Model 2002” for “Twenty eight days later, animals were anesthetized, and”, “A pellet containing” for “Testosterone levels after replacement were approximately”, “mg of testosterone (Innovative Research of America, Sarasota, Fla.) administered as” for “nM,”, “continuous infusion (5 mg/wk), or a pellet containing placebo, was inserted into a subcutaneous pouch.” for “high-normal range for rats of this age.”
Total RNA was extracted from skeletal muscle (20 mg) by homogenization in guanidine thiocyanate using a Polytron followed by extraction using phenol-chloroform (Chomczynski and Sacchi, Anal Biochem 162: 156-159, 1987). […] Total RNA was then eluted and quantified by absorbance at 260 nm. […] Levels of gene expression in the denervated muscle were expressed as fold induction relative to muscle from the sham-denervated leg of animals administered vehicle. […] Fold-induction was determined using the 2^−ΔΔCt method, using expression of 18S RNA as the normalization control. […]

[5] = tested on: myogenin; test: Chronic denervation: myogenin mRNA in gastrocnemius (qPCR)
Description: as §3
Total RNA was extracted from skeletal muscle (20 mg) by homogenization in guanidine thiocyanate using a Polytron followed by extraction of total RNA with phenol-chloroform as described by (Chomczynski and Sacchi, Anal Biochem 162: 156-159, 1987). Total RNA was further enriched using RNAeasy minicolumns (Qiagen, Valencia, Calif.). This procedure included digestion of contaminating DNA on the column with RNAse-free DNAse (Qiagen). Total RNA was eluted and quantified by absorbance at 260 nm. One μg of total RNA was used to prepare a cDNA library by reverse transcription (High Capacity cDNA Archive Kit, Applied Biosystems). Libraries were diluted 25-fold with water. Real time PCR was performed Taqman 2×PCR buffer (Applied Biosystems) using an Applied Biosystems 7500 thermocycler. Levels of gene expression in the denervated muscle were expressed as fold induction relative to muscle from the sham-denervated leg of animals administered vehicle. […] Fold-induction was determined using the 2^−ΔΔCt method, using expression of 18S RNA as the normalization control. Primers and probes used for 18S RNA, MuRF1 and myostatin were obtained through the assays by Design service of Applied Biosystems and had the sequences are shown in Table 3; probes were 5′ labeled with FAM and 3′ modified with a non-fluorescent quencher. All other primer-probe combinations used were those contained in ABI Assay on Demand kits.

[6] = tested on: MAFbx; test: Chronic denervation: MAFbx mRNA in gastrocnemius (qPCR)
Description: as §3, §4

## C[C@]12CC[C@H]3[C@@H](CCC4=CC(=O)CC[C@@H]43)[C@@H]1CC[C@@H]2O [nandrolone]
[1]; denervated muscle, any time tested
  IGFBP-4 expression: did not significantly alter
[1]; sham-denervated muscle
  IGFBP-4 expression: did not appreciably alter
[2]; denervated muscle, 7 and 28 days administration
  myostatin expression: modest, though significant reduction
[2]; sham-denervated muscle, not significant
  myostatin expression: tended to be decreased
[3]; after 28 days (p<0.10)
  IGF-receptor expression: trend toward increased expression
[3]; early time points
  IGF-receptor expression: did not alter
[3]; sham-denervated muscle
  IGF-1 receptor expression: not altered
[4]; denervated soleus or EDL
  IGF-1R expression: No appreciable effects
[4]; sham-denervated soleus and EDL, changes not significant
  IGF-1R expression: tended to increase
[5]; denervated muscle, 3 or 7-days administration
  myogenin expression: No effects
[5]; denervated muscle, 28-days infusion
  fall in myogenin expression: 32%
[5]; muscle not stated (contrasted with denervated muscle), day 28 of the infusion
  elevation of myogenin expression: approximately 2 fold
[5]; muscle not stated, first 7-days after starting administration
  myogenin expression: did not alter
[6]; denervated muscle, 7-days infusion (35 days after denervation)
  MAFbx expression: tended to be reduced
[6]; denervated muscle, 28 days administration
  reduction of MAFbx expression: 35%
[6]; sham-denervated muscle
  MAFbx expression: did not alter
